Test results as given in PMC6801514, “Structural and Functional Characterization of Three Novel Fungal Amylases with Enhanced Stability and pH Tolerance” (International Journal of Molecular Sciences, 2019).

Target: T1, CfAM (Cordyceps farinosa, UniProt A0A5S8WFA8)
T1 construct: A, B and C domains (native enzyme lacks CBM20); secreted from Aspergillus oryzae MT3568, mature about 48 kDa, no tag told; two monomers in the asymmetric unit
T1 sequence (A0A5S8WFA8 19-460): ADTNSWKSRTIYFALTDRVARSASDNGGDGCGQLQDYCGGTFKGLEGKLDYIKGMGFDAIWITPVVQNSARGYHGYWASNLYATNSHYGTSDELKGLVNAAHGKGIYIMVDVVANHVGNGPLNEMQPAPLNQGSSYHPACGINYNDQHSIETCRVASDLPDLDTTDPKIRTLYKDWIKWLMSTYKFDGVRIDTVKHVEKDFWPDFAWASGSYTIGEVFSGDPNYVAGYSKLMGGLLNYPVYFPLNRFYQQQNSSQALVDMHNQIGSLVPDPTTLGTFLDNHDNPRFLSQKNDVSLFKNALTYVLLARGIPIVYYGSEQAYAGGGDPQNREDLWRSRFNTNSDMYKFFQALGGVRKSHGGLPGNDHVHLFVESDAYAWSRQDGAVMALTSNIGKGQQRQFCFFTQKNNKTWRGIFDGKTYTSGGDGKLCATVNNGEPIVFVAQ
Test: X-ray crystallography, […] Å
Type: binding
Settings: co-crystallised with 40 mM acarbose, 12% PEG 3350, 0.2 M NaNO3, CAPS pH 11.0; active-site cleft, subsites -4 to +3; ligand formed from acarbose in crystallo crystal (acarbose added, no maltose additio)

## OC[C@H]1O[C@H](O[C@H]2[C@H](O)[C@@H](O)C(O)O[C@@H]2CO)[C@H](O)[C@@H](O)[C@@H]1O (stereo partly shown) [maltose]
  X-ray crystallography, 1.35 Å: a secondary binding site in domain C was identified and modelled as maltose
